Where two headings read alike, the source gives them in different places.
Columns and labels:
[1] = parameters: method as in PMID 26741026, PMID 29859954; details: from previous studies, ref [11],[16], cited from earlier work; for Kd: read-out: Kd ± SE, traditional method (Sips isotherm); for n ± SE, traditional method (Sips isotherm): heterogeneity index; for Bmax ± SE, traditional method (Sips isotherm): maximum binding capacity
[2] = system: melanin; assay: in vitro; details: for fraction unbound at 20 h, 1 µM: pig, pH 7.4
Protocol: (§1) The traditional melanin binding assay was conducted with melanin from the porcine RPE-choroid. We used previously published methods for melanin isolation and drug binding. Fresh melanin suspension and test compound solutions were prepared before each experiment. The melanin suspension (in PBS, pH 7.4) was sonicated in a bath sonicator for 30 min (Elmasonic S 40 H, Elma Schmidbauer GmbH, Singen, Germany) before the experiment. The incubation with test compounds took place at 37 °C on a shaker (220 rpm), and the melanin concentration in the assay was 1 mg/mL (0.15 mg/well). In the control samples, PBS buffer (pH 7.4) was used instead of the melanin suspension. Three individual replicates were made for each experiment. After 20 h incubation, the samples were centrifuged at 20,000× g for 20 min, and supernatant containing the unbound ligand was collected for analysis.
(§2) Samples having an estimated concentration of 0.5 µM or higher were analyzed with ultra-high pressure liquid chromatography (UPLC) (Acquity UPLC, Waters, Milford, MA, USA) with UV detection (Photodiode Array Detector, Waters, MA, USA). The separation was carried out on a Luna Omega Polar C18 (1.6 μm, 2.1 × 50 mm^2) column (Phenomenex) at 30 °C. Injection volume was 4 µL. Gradient mode was used for all the compounds with an acetonitrile/15 mM phosphate buffer (pH 2) mobile phase. Gradient duration was 3−5 min depending on the sample (levofloxacin, terazosin, and papaverine).
(§3) All internal standards, namely levofloxacin D8, terazosin D8, and papaverine D3, were purchased from Toronto Research Chemicals (Toronto, ON, Canada). […] Injection volumes were 0.2 μL for terazosin, 0.3 µL for levofloxacin, and 0.15 µl for papaverine with a flow through needle injection system. The mobile phase consisted of 0.1% formic acid (Merck, Darmstadt, Germany) in ultrapure water (A) and 100% LC–MS grade acetonitrile (Honeywell, Seelze, Germany) (B). […] The gradient for levofloxacin was the same as for papaverine, but the total run time was 6 min. The flow rate was 0.3 mL/min for all the compounds.
(§4) Mass spectrometric measurements were carried out using a Waters Xevo TQ-S triple quadruple mass spectrometer coupled with an electrospray ionization (ESI) on a positive mode for all three compounds. Optimized MS-parameters were as follows: capillary 1.5 kV (terazosin and papaverine), 3.5 kV (levofloxacin), cone voltage 80 V (terazosin) and 8 V (terazosin D8), 22 V (papaverine and papaverine D3), 28 V (levofloxacin and levofloxacin D8), source temperature 150 °C, and desolvation temperature 500 °C (terazosin) or 450 °C (papaverine and levofloxacin). Nitrogen (AGA, Helsinki, Finland) was used as the desolvation gas (1000 L·h^−1 terazosin, 800 L·h^−1 papaverine and levofloxacin) and the cone gas (150 L·h^−1), argon (AGA, Helsinki, Finland) as the collision gas. Multiple reaction monitoring (MRM) mode was employed for quantification. […] The resulting data were analyzed with Waters MassLynx V4.1 software. To consider the effect of melanin on the analyses, separate samples containing only melanin in PBS (with no test compound) were also studied.
(§5) The binding parameters were determined with Sips isotherm (Equation (2)) as described by Manzanares et al.. B = (Bmax × [L]^n)/(Kd^n + [L]^n)(2) where B is the amount of bound drug (nmol·mg^−^1); Bmax is the maximum binding capacity (nmol·mg^−^1); [L] is the free drug concentration (µM); n is the heterogeneity index (assuming heterogeneity of the surface of the melanin particles); and Kd represents the dissociation constant (µM).

[3] = Traditional melanin binding assay (equilibrium binding, Sips isotherm); details: for Target Capacity ± SE, traditional method (Sips isotherm): Bmax multiplied with 0.5 mg/mL melanin concentration of the MST assay; for n ± SE, traditional method (Sips isotherm): heterogeneity index; for n ± SE, traditional method (Sips isotherm) / Bmax ± SE, traditional method (Sips isotherm) / Kd: 1 mg/mL melanin, PBS pH 7.4, 37 °C; for Bmax ± SE, traditional method (Sips isotherm): maximum binding capacity; for Kd: read-out: Kd ± SE, traditional method (Sips isotherm)
Protocol: as §1, §2, §3, §4, §5

[4] = Label-free microscale thermophoresis (MST) melanin binding assay; details: for melanin binder category in Figure 1a: comparison of MST with traditional assay
Protocol: Synthetic melanin was purchased from Sigma Aldrich (#M8631-100 mg). Melanin nanoparticles were prepared as described earlier by Fan et al., and low-binding pipette tips (Maxymum RecoveryTM pipet tips, Corning Incorporated, Salt Lake City, UT, USA) and tubes (No stick microtubes, Alpha Laboratories, Hampshire, UK) were used with both melanin and melanin nanoparticles. Briefly, melanin was dissolved into 1 N NaOH with a concentration of 2 mg/mL and stirred by vortexing. The solution was neutralized by adding an equal volume of 1 N HCl. […] After the final centrifugation, the resulting nanoparticles were suspended into a small volume of sterile water and freeze-dried for 48–72 h (ModulyoD-230, Thermo Savant, Holbrook, NY, USA), and stored at −20 °C until the binding assays.
Melanin binding of each of the 13 model compounds was determined (for the concentrations in the assay, see Table 1). The dilution series of drugs were prepared onto a PCR plate (4titude PCR Plate, Skirted, #4ti-0740, Brooks Life Sciences, Chelmsford, MA, USA) in phosphate buffered saline (PBS, pH 7.4). […] The compound dilutions (10 µL) were transferred into 0.2 mL PCR tube strips (#TBS0201, Bio-Rad Laboratories, Inc., Hercules, CA, USA), and an equal volume of 1 mg/mL melanin nanoparticle dilution was added, resulting in a final melanin concentration of 0.5 mg/mL. At least three biological replicates (individually incubated dilution series) were prepared for each compound (n = 3–5). A reference sample containing only melanin nanoparticles and PBS (pH 7.4) was included in each assay to determine the unbound state in the thermophoresis experiment. Melanin nanoparticles were incubated with the compounds at room temperature for at least 2 h.
After >2 h incubation, the melanin–ligand complexes were mixed gently with a pipette to ensure melanin solution homogeneity and then transferred into capillaries (Monolith NT.115 Premium capillaries, #MOK025, NanoTemper Technologies GmbH, München, Germany). The samples were analyzed with a Monolith NT.115 pico device using MO.Control Software (both from NanoTemper Technologies GmbH, München, Germany) using nano-blue excitation, LED light adjusted to 60% excitation power, and infrared laser (MST power) set to high. […] The equation is based on the Langmuir binding isotherm. […] Equation (1) is a follows:(1) f(c)=Unbound+(Bound−Unbound)×c+c(target)+Kd−(c+c(target)+Kd)^2−4c×c(target)/2c(target) where f(c) is the fraction bound at a given ligand concentration c. Unbound is either the normalized fluorescence signal (Fnorm; MST mode) or raw fluorescence counts (initial fluorescence mode) of the target alone. Bound is either the normalized fluorescence signal or raw fluorescence counts (initial fluorescence mode) of the melanin–ligand complex. Kd is the dissociation constant or binding affinity, and c (target) is the final concentration of the target in the assay.
The normalized fluorescence is the ratio of relative fluorescence of the selected region after heating (hot region) and relative initial fluorescence before the heating (cold region, i.e., relative fluorescence values before the infrared laser was switched on). The MST traces displaying the changes in the relative fluorescence over time (heating) with the selected hot and cold regions are presented in the Supplementary Materials. In the case of ligand-induced changes in the initial raw fluorescence counts, the raw fluorescence counts prior to the heating were used (initial fluorescence mode). If the ligand-induced fluorescence changes were not observed, the normalized fluorescence signals (MST mode) were used to determine the Kd (for additional information, see the Supplementary Materials). […] Affinity Analysis Software.
Kd determination strategies. The Kd values were tested in both initial fluorescence and the above
described MST modes within the MO Affinity Analysis Software (Fig. S1, Table S1) and the Kd values

[5] = system: melanin; assay: Prediction of unbound ligand fraction in vivo (human RPE-choroid); details: human
Protocol: (§6) Unbound ligand fractions in vivo were calculated considering melanin binding as the only driver of nonspecific tissue binding.
(§7) Linear regression was used to describe the relationship between the Kd values obtained with the MST and the predicted unbound ligand fractions in human RPE-choroid obtained with calculations described above.
(§8) The Kd values obtained with MST consider only one class of binding site, whereas the Sips isotherm (the traditional binding assay) depicts different binding energies and binding sites. […] This approach is relevant to evaluate the melanin binding.

[6] = as above; details: class by predicted fraction unbound in vivo, human RPE-choroid
Protocol: as §6, §7, §8

[7] = monkeys and humans; ref [10]; cited from earlier work
[8] = average of the two high binders; 34 compounds in cassette; melanin 3.6 mg/mL; data of Pelkonen et al. [6]
Protocol: as §6

[9] = 0.5 mg/mL (12.5 µM) melanin nanoparticles, PBS pH 7.4, room temperature, 68% confidence, initial fluorescence mode for compounds marked *, otherwise MST mode, read-out: Kd ± Kd Confidence (MST)
[10] = Table S2, normalized fluorescence, 60% excitation power, read-out: Kd, MST mode (Fnorm)
[11] = human RPE-choroid (predicted), 34.8 mg/mL melanin
[12] = Table S2, raw fluorescence counts before heating, 60% excitation power, read-out: Kd, initial fluorescence mode (converted)

| SMILES | fraction unbound at 20 h, 1 µM [2] | Target Capacity ± SE, traditional method (Sips isotherm) [3] [µM] | Kd [4, 9] [µM] | Kd [4, 10] [µM] | fraction unbound at 1 µM [5, 11] | n ± SE, traditional method (Sips isotherm) [1] | Bmax ± SE, traditional method (Sips isotherm) [1] [nmol/mg] | Melanin binding class based on traditional assay [6] | Kd [4, 12] [µM] | further results |
| --- | --- | --- | --- | --- | --- | --- | --- | --- | --- | --- |
| CCN(CC)CCCC(C)Nc1ccnc2cc(Cl)ccc12 (centres unmarked) [Chloroquine] | 0.0041 | 190 ± 20 | 0.8 | 0.8 | 1.2e-05 | 0.605 ± 0.012 | 380 ± 40 | extreme | – | Kd [1]: 76 ± 23 µM |
| O=C(O)Cc1ccccc1Nc1c(Cl)cccc1Cl [Diclofenac] | – | – | – | – | – | – | – | – | – | Kd ± SE, traditional method (Sips isotherm) [1]: no binding ^1; Kd ± Kd Confidence (MST) ([4]; 0.5 mg/mL (12.5 µM) melanin nanoparticles, PBS pH 7.4, room temperature, 68% confidence, initial fluorescence mode for compounds marked *, otherwise MST mode): Kd could not be determined; Melanin binding class based on Kd from MST ([4]; class by Kd (MST)): low; melanin binder category in Figure 1a [4]: Weak melanin binders |
| CN(Cc1cnc2nc(N)nc(N)c2n1)c1ccc(C(=O)N[C@@H](CCC(=O)O)C(=O)O)cc1 [Methotrexate] | – | – | 3500 | > 10000 | – | – | – | low | 3500 | Kd ± SE, traditional method (Sips isotherm) [1]: no binding ^1; fraction unbound [2]: 0.98; melanin binder category in Figure 1a [4]: Weak melanin binders; fraction unbound [5, 11]: 0.54 |
| CC(C)(C)NCC(O)COc1cccc2c1CC(O)C(O)C2 (centres unmarked) [Nadolol] | – | 34 ± 12 | 200 ± 33 | 260 | 0.08 | 0.94 ± 0.05 | 68 ± 24 | intermediate | 200 | Kd [1]: 340 ± 200 µM; Fraction Unbound in Vitro (%) (1 mg/mL Melanin) ([3]; pig, 20 h, 1 µM, pH 7.4): 78% |
| COc1ccc(Cc2nccc3cc(OC)c(OC)cc23)cc1OC [Papaverine] | 0.15 | 33 ± 4 | 28 ± 23 | 93 | – | – | – | high | 28 | n ± SE, traditional method (Sips isotherm) ([3]; 20 h): 0.715 ± 0.015; Bmax ± SE, traditional method (Sips isotherm) ([3]; 20 h): 66 ± 8 nmol/mg; Kd ([3]; 20 h): 66 ± 18 µM; fraction unbound at 1 µM [5]: 0.0013 |
| CC1(C)S[C@@H]2[C@H](NC(=O)Cc3ccccc3)C(=O)N2[C@H]1C(=O)O [Penicillin G] | – | – | – | – | – | – | – | – | – | fraction unbound [2]: 0.092; fraction unbound [5, 11]: 0.0029 |
| C=C[C@H]1C[N@@]2CC[C@H]1C[C@@H]2[C@@H](O)c1ccnc2ccc(OC)cc12 [Quinidine] | – | – | – | – | – | – | – | – | – | fraction unbound [2]: 0.16 |
| CC(C)NCC(O)COc1ccc(CCOCC2CC2)cc1 (centres unmarked) [betaxolol] | – | – | – | – | – | – | – | – | – | concentration in pigmented eye tissues compared to neighboring non-pigmented tissues [7]: 20–150 fold |
| Clc1ccc2nsnc2c1NC1=NCCN1 [tizanidine] | – | – | – | – | – | – | – | – | – | unbound fraction in cassette assay compared to single compound incubation [8]: 2.1 fold |

The next lines start with results.

| fraction unbound at 20 h, 1 µM [2] | Target Capacity ± SE, traditional method (Sips isotherm) [3] [µM] | Kd [4, 9] [µM] | Kd [4, 10] [µM] | fraction unbound at 1 µM [5, 11] | SMILES | n ± SE, traditional method (Sips isotherm) [1] | Bmax ± SE, traditional method (Sips isotherm) [1] [nmol/mg] | Melanin binding class based on traditional assay [6] | Kd [4, 12] [µM] | further results |
| --- | --- | --- | --- | --- | --- | --- | --- | --- | --- | --- |
| 0.32 | 88 ± 30 | – | – | 0.009 | CC(C)NCC(O)COc1cccc2ccccc12 (centres unmarked) [Propranolol] | 0.89 ± 0.05 | 176 ± 60 | high | – | – |
| 0.029 | 56 ± 6.5 | 29 ± 28 | 96 | 0.00012 | COc1cc2nc(N3CCN(C(=O)C4CCCO4)CC3)nc(N)c2cc1OC (centres unmarked) [Terazosin] | – | – | extreme | 29 | n ± SE, traditional method (Sips isotherm) ([3]; 20 h): 0.64 ± 0.018; Bmax ± SE, traditional method (Sips isotherm) ([3]; 20 h): 112 ± 13 nmol/mg; Kd ([3]; 20 h): 46 ± 16 µM |
| 0.71 | 19.5 ± 3 | 260 ± 128 | 260 | 0.057 | CC(C)(C)NC[C@H](O)COc1nsnc1N1CCOCC1 [Timolol] | 0.95 ± 0.03 | 39 ± 6 | intermediate | – | Kd [1]: 120 ± 30 µM |
